Results as given in patent US5627211A, “Cyclohexyl amine derivatives and their use as tachykinin antagonists” (Merck Sharp & Dohme Limited, priority 1992, dated 1997).
Where two headings read alike, the source gives them in different places.

Biological target: human NK1R (Homo sapiens, UniProt P25103)
Experiment: human NK1R assay: displacement of radiolabelled substance P binding
Procedure: The substance P antagonizing activity of the compounds described herein was evaluated using the human NK1R assay described in published European patent application no. 0 528 495. The method essentially involves determining the concentration of the test compound required to reduce by 50% the amount of radiolabelled substance P binding to human NK1R, thereby affording an IC50 value for the test compound.

[1] = radiolabelled substance P, assay as in EP 0 528 495, read-out: IC50 (concentration of the test compound required to reduce by 50% the amount of radiolabelled substance P binding to human NK1R)

human NK1R, sequence (P25103 whole entry): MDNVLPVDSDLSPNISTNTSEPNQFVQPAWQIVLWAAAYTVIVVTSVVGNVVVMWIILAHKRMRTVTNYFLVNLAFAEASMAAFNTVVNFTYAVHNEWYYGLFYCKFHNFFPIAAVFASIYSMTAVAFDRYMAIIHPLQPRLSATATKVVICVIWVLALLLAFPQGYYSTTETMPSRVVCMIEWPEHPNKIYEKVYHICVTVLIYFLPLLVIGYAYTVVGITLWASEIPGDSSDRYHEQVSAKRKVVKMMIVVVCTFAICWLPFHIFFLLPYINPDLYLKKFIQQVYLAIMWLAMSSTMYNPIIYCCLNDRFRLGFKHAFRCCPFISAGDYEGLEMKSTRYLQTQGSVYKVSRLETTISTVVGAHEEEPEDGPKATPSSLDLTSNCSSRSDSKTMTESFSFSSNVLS

Row | IC50 [1] [nM] | SMILES | IC50 [nM]
1 | 100 | NC(=O)CNC1(c2ccccc2)CCCCC1OCc1cc(C(F)(F)F)cc(C(F)(F)F)c1 (stereo not drawn) [Example 6, 1-(Bis-3,5-trifluoromethylbenzyoxy)-2-(carboxamido)methylamino-2-phenylcyclohexane] | –
2 | – | Cc1cc(C)cc(COC2CCCCC2(N)c2ccccc2)c1 (stereo not drawn) [Example 1, 1-(3,5-Dimethylbenzyloxy)-2-amino-2-phenylcyclohexane] | 100
3 | 350 | NC1(c2ccccc2)CCCCC1OCc1cc(C(F)(F)F)cc(C(F)(F)F)c1 (stereo not drawn) [Example 5, 1-(Bis-3,5-trifluoromethylbenzyoxy)-2-amino-2-phenylcyclohexane] | –
